Like-named read-outs stand apart in the source and are kept apart here.
Legend:
[1] = molecular target: EGFR del19/T790M/C797S (Homo sapiens, UniProt P00533, C797S/DEL746-750/T790M); assay: Biochemical EGFR kinase assay (Lance Ultra TR-FRET), triple mutant del19/T790M/C797S
Outline: (§1)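 Step 1: compound in kinase buffer, 0.003–10 μM. Step 2: kinase reaction 1 h at room temperature. Step 4: TR-FRET read at 615/665 nm; IC50 calculated.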

[2] = molecular target: EGFR L858R/T790M/C797S (Homo sapiens, UniProt P00533, C797S/L858R/T790M); assay: Biochemical EGFR kinase assay (Lance Ultra TR-FRET), triple mutant L858R/T790M/C797S
EGFR L858R/T790M/C797S, sequence (P00533 25-1210 T790M/C797S/L858R): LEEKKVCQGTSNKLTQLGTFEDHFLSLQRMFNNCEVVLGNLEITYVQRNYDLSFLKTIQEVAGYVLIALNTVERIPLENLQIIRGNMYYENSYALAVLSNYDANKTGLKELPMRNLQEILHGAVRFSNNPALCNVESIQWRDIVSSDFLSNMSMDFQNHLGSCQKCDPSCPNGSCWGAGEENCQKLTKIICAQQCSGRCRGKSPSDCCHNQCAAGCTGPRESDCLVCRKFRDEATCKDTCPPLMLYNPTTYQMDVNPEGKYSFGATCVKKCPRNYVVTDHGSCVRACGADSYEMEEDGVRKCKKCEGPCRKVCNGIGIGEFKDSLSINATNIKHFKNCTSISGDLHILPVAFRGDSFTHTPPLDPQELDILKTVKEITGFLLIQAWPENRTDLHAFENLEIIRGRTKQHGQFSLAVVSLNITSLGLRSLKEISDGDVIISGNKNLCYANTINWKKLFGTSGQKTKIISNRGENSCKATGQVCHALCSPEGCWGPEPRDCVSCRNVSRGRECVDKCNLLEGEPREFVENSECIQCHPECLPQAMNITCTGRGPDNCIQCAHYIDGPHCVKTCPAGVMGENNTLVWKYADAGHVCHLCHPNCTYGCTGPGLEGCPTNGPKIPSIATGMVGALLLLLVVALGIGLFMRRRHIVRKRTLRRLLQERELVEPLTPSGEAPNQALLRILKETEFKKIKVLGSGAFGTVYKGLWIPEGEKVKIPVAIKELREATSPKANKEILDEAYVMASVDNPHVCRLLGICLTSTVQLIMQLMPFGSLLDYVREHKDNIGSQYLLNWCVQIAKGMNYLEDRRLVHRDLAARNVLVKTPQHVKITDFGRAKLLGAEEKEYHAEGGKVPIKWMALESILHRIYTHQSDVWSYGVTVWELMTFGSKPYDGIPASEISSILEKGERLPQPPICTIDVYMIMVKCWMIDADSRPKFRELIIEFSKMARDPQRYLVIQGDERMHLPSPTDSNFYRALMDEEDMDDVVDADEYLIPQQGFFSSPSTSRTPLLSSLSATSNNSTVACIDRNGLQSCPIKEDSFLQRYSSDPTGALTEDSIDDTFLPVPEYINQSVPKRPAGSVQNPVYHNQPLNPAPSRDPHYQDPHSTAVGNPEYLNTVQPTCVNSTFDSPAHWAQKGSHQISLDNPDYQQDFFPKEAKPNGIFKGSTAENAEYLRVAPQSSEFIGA
Outline: as §1

[3] = molecular target: EGFR del19/C797S (Homo sapiens, UniProt P00533, C797S/DEL746-750); assay: Biochemical EGFR kinase assay (Lance Ultra TR-FRET), double mutant del19/C797S
Outline: as §1

[4] = molecular target: EGFR L858R/C797S (Homo sapiens, UniProt P00533, C797S/L858R); assay: Biochemical EGFR kinase assay (Lance Ultra TR-FRET), double mutant L858R/C797S
EGFR L858R/C797S, sequence (P00533 25-1210 C797S/L858R): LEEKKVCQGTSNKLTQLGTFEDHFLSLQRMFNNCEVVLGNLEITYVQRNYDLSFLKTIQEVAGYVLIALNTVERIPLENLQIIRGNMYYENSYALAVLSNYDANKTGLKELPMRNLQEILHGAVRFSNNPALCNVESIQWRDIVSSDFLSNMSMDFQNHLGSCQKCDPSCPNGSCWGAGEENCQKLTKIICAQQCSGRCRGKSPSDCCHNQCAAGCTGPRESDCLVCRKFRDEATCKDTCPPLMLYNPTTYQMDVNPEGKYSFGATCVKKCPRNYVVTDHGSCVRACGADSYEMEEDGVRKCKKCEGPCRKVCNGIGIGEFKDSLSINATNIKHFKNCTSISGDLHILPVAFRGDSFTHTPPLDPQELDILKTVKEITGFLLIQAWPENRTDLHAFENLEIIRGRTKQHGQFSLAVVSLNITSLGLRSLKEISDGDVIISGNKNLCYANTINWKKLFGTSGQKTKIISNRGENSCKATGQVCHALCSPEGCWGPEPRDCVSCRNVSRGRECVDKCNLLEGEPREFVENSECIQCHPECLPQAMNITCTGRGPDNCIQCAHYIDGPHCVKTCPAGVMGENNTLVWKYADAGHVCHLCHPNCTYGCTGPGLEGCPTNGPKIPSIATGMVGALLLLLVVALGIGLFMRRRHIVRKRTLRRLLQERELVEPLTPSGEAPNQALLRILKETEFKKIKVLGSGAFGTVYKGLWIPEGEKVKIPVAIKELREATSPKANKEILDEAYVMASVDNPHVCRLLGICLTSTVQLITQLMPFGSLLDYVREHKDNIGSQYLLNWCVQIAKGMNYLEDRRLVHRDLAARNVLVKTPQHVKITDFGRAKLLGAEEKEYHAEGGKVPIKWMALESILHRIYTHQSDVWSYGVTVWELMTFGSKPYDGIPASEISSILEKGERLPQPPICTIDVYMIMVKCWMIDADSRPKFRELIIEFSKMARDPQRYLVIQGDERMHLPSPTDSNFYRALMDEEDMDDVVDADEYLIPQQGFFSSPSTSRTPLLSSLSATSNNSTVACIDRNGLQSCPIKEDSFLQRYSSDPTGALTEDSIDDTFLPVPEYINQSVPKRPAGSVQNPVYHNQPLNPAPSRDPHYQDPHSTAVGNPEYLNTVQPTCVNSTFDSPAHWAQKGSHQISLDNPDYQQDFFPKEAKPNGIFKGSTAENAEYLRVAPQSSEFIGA
Outline: as §1

[5] = molecular target: EGFR wildtype (Homo sapiens, UniProt P00533); assay: Biochemical EGFR kinase assay (Lance Ultra TR-FRET), wildtype
EGFR wildtype, sequence (P00533 25-1210): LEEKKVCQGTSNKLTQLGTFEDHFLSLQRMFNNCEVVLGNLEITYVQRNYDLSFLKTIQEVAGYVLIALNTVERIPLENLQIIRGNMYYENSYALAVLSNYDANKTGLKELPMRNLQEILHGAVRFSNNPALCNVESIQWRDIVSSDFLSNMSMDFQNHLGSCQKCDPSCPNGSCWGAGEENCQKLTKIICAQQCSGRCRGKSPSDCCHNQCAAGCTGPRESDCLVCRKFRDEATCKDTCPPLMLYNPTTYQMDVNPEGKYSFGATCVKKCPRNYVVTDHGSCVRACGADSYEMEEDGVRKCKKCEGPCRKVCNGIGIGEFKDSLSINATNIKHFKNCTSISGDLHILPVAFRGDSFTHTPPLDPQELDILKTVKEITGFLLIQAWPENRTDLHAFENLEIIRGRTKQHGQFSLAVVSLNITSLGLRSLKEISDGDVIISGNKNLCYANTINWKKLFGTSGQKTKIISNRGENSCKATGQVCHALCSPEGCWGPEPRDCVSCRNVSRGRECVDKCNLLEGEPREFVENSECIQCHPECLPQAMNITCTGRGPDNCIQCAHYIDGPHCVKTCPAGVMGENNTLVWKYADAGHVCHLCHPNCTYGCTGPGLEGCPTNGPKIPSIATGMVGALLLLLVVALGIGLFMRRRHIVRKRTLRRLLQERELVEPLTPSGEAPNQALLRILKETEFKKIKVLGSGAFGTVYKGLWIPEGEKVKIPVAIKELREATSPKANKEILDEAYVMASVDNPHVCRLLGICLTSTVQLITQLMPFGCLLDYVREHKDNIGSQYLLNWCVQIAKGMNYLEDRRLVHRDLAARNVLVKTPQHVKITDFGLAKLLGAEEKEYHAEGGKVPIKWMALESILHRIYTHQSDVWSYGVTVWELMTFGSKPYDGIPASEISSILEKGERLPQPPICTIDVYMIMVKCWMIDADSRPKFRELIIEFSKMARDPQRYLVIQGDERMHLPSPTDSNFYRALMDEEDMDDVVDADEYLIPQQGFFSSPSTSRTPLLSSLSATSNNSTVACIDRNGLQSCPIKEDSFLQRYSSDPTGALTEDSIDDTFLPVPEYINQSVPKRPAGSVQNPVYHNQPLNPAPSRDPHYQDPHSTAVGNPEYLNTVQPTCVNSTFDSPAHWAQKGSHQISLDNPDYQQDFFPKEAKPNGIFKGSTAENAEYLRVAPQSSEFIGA
Outline: as §1

[6] = ATP at Km, read-out: IC50 del19/T790M/C797S, Km ATP
[7] = ATP at Km, read-out: IC50 L858R/T790M/C797S, Km ATP
[8] = ATP at Km, read-out: IC50 del19/C797S, Km ATP
[9] = ATP at Km, read-out: IC50 L858R/C797S, Km ATP
[10] = ATP at Km, read-out: IC50 WT, Km ATP
[11] = IC50 del19/T790M/C797S (nM) 100 μM ATP, 100 μM ATP
[12] = IC50 L858R/T790M/C797S (nM) 100 μM ATP, 100 μM ATP
[13] = IC50 del19/C797S (nM) 100 μM ATP, 100 μM ATP
[14] = IC50 L858R/C797S (nM) 100 μM ATP, 100 μM ATP
[15] = IC50 WT (nM) 100 μM ATP, 100 μM ATP
[16] = IC50 del19/T790M/C797S, 100 μM ATP
[17] = IC50 L858R/T790M/C797S, 100 μM ATP
[18] = Km ATP, read-out: IC50 del19/T790M/C797S (nM) Km ATP
[19] = Km ATP, read-out: IC50 L858R/T790M/C797S (nM) Km ATP
[20] = Km ATP, read-out: IC50 del19/C797S (nM) Km ATP
[21] = Km ATP, read-out: IC50 L858R/C797S (nM) Km ATP
[22] = Km ATP, read-out: IC50 WT (nM) Km ATP

EGFR del19/T790M/C797S, sequence (P00533 with tags, fused parts or gaps DEL746-750/T790M/C797S): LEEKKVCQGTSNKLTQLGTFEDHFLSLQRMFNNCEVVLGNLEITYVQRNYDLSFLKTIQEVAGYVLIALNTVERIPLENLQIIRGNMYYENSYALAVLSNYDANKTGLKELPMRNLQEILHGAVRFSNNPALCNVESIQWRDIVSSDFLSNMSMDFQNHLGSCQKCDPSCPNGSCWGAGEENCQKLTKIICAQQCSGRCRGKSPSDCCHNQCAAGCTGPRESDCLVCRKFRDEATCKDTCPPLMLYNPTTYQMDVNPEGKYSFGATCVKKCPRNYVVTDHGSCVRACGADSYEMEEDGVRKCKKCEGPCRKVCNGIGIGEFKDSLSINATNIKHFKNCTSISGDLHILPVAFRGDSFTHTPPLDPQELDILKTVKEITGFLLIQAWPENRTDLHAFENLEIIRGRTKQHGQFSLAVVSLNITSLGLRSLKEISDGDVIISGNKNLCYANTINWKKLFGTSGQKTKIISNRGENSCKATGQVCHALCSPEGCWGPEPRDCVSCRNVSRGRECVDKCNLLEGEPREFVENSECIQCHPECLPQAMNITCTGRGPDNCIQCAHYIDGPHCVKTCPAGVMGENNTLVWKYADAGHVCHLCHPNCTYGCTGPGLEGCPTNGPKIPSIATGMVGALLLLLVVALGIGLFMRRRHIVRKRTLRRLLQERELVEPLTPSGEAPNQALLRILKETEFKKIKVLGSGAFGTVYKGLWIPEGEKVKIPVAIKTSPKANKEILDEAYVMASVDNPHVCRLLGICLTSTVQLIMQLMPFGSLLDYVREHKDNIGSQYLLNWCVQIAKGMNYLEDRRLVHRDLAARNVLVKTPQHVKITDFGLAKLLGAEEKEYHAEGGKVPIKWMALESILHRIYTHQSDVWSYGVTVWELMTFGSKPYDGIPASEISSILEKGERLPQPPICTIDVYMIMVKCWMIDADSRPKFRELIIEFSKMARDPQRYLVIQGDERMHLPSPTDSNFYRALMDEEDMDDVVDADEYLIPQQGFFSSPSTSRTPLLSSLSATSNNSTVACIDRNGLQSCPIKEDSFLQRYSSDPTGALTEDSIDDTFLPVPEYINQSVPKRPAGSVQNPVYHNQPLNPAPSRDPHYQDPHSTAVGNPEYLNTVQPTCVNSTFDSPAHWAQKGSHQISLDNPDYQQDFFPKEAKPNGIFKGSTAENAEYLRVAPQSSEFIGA

SMILES	IC50 [1, 6] [nM]	IC50 [2, 7] [nM]	IC50 [3, 8] [nM]	IC50 [4, 9] [nM]	IC50 [5, 10] [nM]	IC50 [1, 11] [nM]	IC50 [2, 12] [nM]	IC50 [3, 13] [nM]	IC50 [4, 14] [nM]	IC50 [5, 15] [nM]	IC50 [1, 16] [nM]	IC50 [2, 17] [nM]	IC50 ([3]; IC50 del19/C797S, 100 μM ATP) [nM]	IC50 ([4]; IC50 L858R/C797S, 100 μM ATP) [nM]	IC50 ([5]; IC50 WT, 100 μM ATP) [nM]	IC50 [1, 18] [nM]	IC50 [2, 19] [nM]	IC50 [3, 20] [nM]	IC50 [4, 21] [nM]	IC50 [5, 22] [nM]
O=S(=O)(C1CC1)n1cc(-c2nccc(Nc3cc(NC4CCC(F)CC4)c(-c4ccc(N5CCC(F)(F)CC5)nn4)cn3)n2)cn1 (stereo not shown) [Example 267, N^2-(2-(1-(Cyclopropylsulfonyl)-1H-pyrazol-4-yl)pyrimidin-4-yl)-5-(6-(4,4-difluoropiperidin-1-yl)pyridazin-3-yl)-N^4-(4-fluorocyclohexyl)pyridine-2,4-diamine]	15.4	21.7	82.1	357	2910	–	–	–	–	–	–	–	–	–	–	–	–	–	–	–
C[C@]1(O)CC[C@@H](Nc2cc(Nc3ccnc(-c4cnn(S(=O)(=O)C5CC5)c4)n3)ncc2-c2cc(CN3CCOCC3)ccn2)CC1 [Example 61, (1s,4s)-4-((6′-((2-(1-(Cyclopropylsulfonyl)-1H-pyrazol-4-yl)pyrimidin-4-yl)amino)-4-(morpholinomethyl)-[2,3′-bipyridin]-4′-yl)amino)-1-methylcyclohexan-1-ol]	–	–	–	–	–	0.2	0.2	0.4	1.8	3940	–	–	–	–	–	–	–	–	–	–
CC(C)(O)c1ccc(-c2cnc(Nc3ccnc(-c4cnn(S(=O)(=O)C5CC5)c4)n3)cc2N[C@H]2CC[C@@H](CO)CC2)nc1 [Example 170, 2-(6′-((2-(1-(Cyclopropylsulfonyl)-1H-pyrazol-4-yl)pyrimidin-4-yl)amino)-4′-(((1s,4s)-4-(hydroxymethyl)cyclohexyl)amino)-[2,3′-bipyridin]-5-yl)propan-2-ol]	0.8	0.2	0.7	0.6	–	–	–	–	–	–	1.3	0.9	2	2.1	141	–	–	–	–	–
C[C@]1(O)CC[C@@H](Nc2cc(Nc3ccnc(-c4cnn(S(=O)(=O)C5CC5)c4)n3)ncc2-c2ccc(N3CCC(F)(F)CC3)cn2)CC1 [Example 47, (1s,4s)-4-((6′-((2-(1-(Cyclopropylsulfonyl)-1H-pyrazol-4-yl)pyrimidin-4-yl)amino)-5-(4,4-difluoropiperidin-1-yl)-[2,3′-bipyridin]-4′-yl)amino)-1-methylcyclohexan-1-ol]	–	–	–	–	–	–	3	4.2	17.7	> 10000	–	–	–	–	–	2	1	3.2	7.9	7.1
C[C@]1(O)CC[C@@H](Nc2cc(Nc3ccnc(-c4cnn(S(=O)(=O)C5CC5)c4)n3)ncc2-c2cc(OCCN3CCOCC3)ccn2)CC1 [Example 211, (1s,4s)-4-((6′-((2-(1-(Cyclopropylsulfonyl)-1H-pyrazol-4-yl)pyrimidin-4-yl)amino)-4-(2-morpholinoethoxy)-[2,3′-bipyridin]-4′-yl)amino)-1-methylcyclohexan-1-ol]	0.3	0.1	–	0.5	6.9	–	–	–	–	–	0.5	0.4	2.4	30.1	9480	–	–	–	–	–
C[C@]1(O)CC[C@@H](Nc2cc(Nc3ccnc(-c4cnn(S(=O)(=O)C5CC5)c4)n3)ncc2-c2ccc(N3CCCCC3)cn2)CC1 [Example 54, (1s,4s)-4-((6′-((2-(1-(Cyclopropylsulfonyl)-1H-pyrazol-4-yl)pyrimidin-4-yl)amino)-5-(piperidin-1-yl)-[2,3′-bipyridin]-4′-yl)amino)-1-methylcyclohexan-1-ol]	–	–	–	–	–	11.4	5.1	9.7	7.3	5840	–	–	–	–	–	12.5	–	5.6	1.4	9.2
CN(C)c1cnc(-c2cnc(Nc3ccnc(-c4cnn(S(=O)(=O)C5CC5)c4)n3)cc2N[C@H]2CC[C@@](C)(O)CC2)nc1 [Example 39, (1s,4s)-4-((2-((2-(1-(Cyclopropylsulfonyl)-1H-pyrazol-4-yl)pyrimidin-4-yl)amino)-5-(5-(dimethylamino)pyrimidin-2-yl)pyridin-4-yl)amino)-1-methylcyclohexan-1-ol]	–	–	–	–	–	2.1	0.7	–	74.8	> 10000	–	–	–	–	–	1	0.4	2.5	8.7	26
